Assay results as given in PubChem BioAssay AID2060490 (Molecular Pharmacology Branch, DTP, NCI, 2025).

System: 885512-296-R-J2-PDC complex spheroid viability
Test: Anticancer human tumor 885512-296-R-J2-PDC patient-derived breast carcinoma cell line growth inhibition [GQUAD]
Details: for IC50: curve of first compound; for viability, T/C: stronger effect = lower value
Method in brief: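 Multi-cell-type spheroids of tumor cells with HUVEC and mesenchymal stem cells, treated with drug combinations. Concentrations descend in half-log steps from near clinical Cmax, or from 10 microM where Cmax is unknown; viability read-out.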

[1] = second compound 0.0316 µM, first compound 0.0316 µM
[2] = second compound 0.0316 µM, first compound 0.1 µM
[3] = second compound 0.0316 µM, first compound 0.316 µM
[4] = second compound 0.0316 µM, first compound 1 µM
[5] = second compound 0.0316 µM, first compound 3.16 µM
[6] = second compound 0.0316 µM, first compound 10 µM
[7] = second compound 0.1 µM, first compound 0.0316 µM
[8] = second compound 0.1 µM, first compound 0.1 µM
[9] = second compound 0.1 µM, first compound 0.316 µM
[10] = second compound 0.1 µM, first compound 1 µM
[11] = second compound 0.1 µM, first compound 3.16 µM
[12] = second compound 0.1 µM, first compound 10 µM
[13] = second compound 0.316 µM, first compound 0.0316 µM
[14] = second compound 0.316 µM, first compound 0.1 µM
[15] = second compound 0.316 µM, first compound 0.316 µM
[16] = second compound 0.316 µM, first compound 1 µM
[17] = second compound 0.316 µM, first compound 3.16 µM
[18] = second compound 0.316 µM, first compound 10 µM
[19] = second compound 1 µM, first compound 0.0316 µM
[20] = second compound 1 µM, first compound 0.1 µM
[21] = second compound 1 µM, first compound 0.316 µM
[22] = second compound 1 µM, first compound 1 µM
[23] = second compound 1 µM, first compound 3.16 µM
[24] = second compound 1 µM, first compound 10 µM
[25] = second compound 3.16 µM, first compound 0.0316 µM
[26] = second compound 3.16 µM, first compound 0.1 µM
[27] = second compound 3.16 µM, first compound 0.316 µM
[28] = second compound 3.16 µM, first compound 1 µM
[29] = second compound 3.16 µM, first compound 3.16 µM
[30] = second compound 3.16 µM, first compound 10 µM
[31] = second compound 10 µM, first compound 0.0316 µM
[32] = second compound 10 µM, first compound 0.1 µM
[33] = second compound 10 µM, first compound 0.316 µM
[34] = second compound 10 µM, first compound 1 µM
[35] = second compound 10 µM, first compound 3.16 µM
[36] = second compound 10 µM, first compound 10 µM
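Note: spheroids exposed to the compounds for one week.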
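Throughout, for viability, T/C: percent of tumor spheroid viability relative to DMSO vehicle control wells.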

`C=CC(=O)N1CCN(c2nc(=O)n(-c3c(C)ccnc3C(C)C)c3nc(-c4c(O)cccc4F)c(F)cc23)C(C)C1` (centres undefined) + Cc1[nH]c2ccc(F)cc2c1-c1nc2c3cccnc3c3ncccc3c2[nH]1 was tested, and the IC50 (second compound 0.0316 µM) was > 10000 nM, the IC50 (second compound 0.1 µM) was > 10000 nM and the IC50 (second compound 0.316 µM) was > 10000 nM. For the same compound, the IC50 (second compound 1 µM) was > 10000 nM, the IC50 (second compound 3.16 µM) was < 31.6 nM and the IC50 (second compound 10 µM) was < 31.6 nM. It also gave a viability, T/C [1] of 122%, a viability, T/C [2] of 91% and a viability, T/C [3] of 84.7%. The viability, T/C [4] was 106%, the viability, T/C [5] was 111% and the viability, T/C [6] was 96.3%. For the same compound, the viability, T/C [7] was 118%, the viability, T/C [8] was 96.2% and the viability, T/C [9] was 97.4%. For the same compound, the viability, T/C [10] was 102%, the viability, T/C [11] was 103% and the viability, T/C [12] was 93.4%. For the same compound, the viability, T/C [13] was 92.9%, the viability, T/C [14] was 103% and the viability, T/C [15] was 102%. The viability, T/C [16] was 102%, the viability, T/C [17] was 91.9% and the viability, T/C [18] was 88.8%. It also gave a viability, T/C [19] of 78.9%, a viability, T/C [20] of 79.1% and a viability, T/C [21] of 95.7%. It also gave a viability, T/C [22] of 90%, a viability, T/C [23] of 77.3% and a viability, T/C [24] of 72.1%. It also gave a viability, T/C [25] of 30.6%, a viability, T/C [26] of 22.9% and a viability, T/C [27] of 21.2%. It also gave a viability, T/C [28] of 31.2%, a viability, T/C [29] of 32.9% and a viability, T/C [30] of 27.2%. It also gave a viability, T/C [31] of 1.88%, a viability, T/C [32] of 1.76% and a viability, T/C [33] of 2.07%. For the same compound, the viability, T/C [34] was 3.47%, the viability, T/C [35] was 6.47% and the viability, T/C [36] was 3.97%.
`CC1COCCN1c1cc(C2(S(C)(=N)=O)CC2)nc(-c2ccnc3[nH]ccc23)n1` (centres undefined) + CN(C)c1ccc(Nc2c3ccc(NC(=O)CCN4CCCC4)cc3nc3cc(NC(=O)CCN4CCCC4)ccc23)cc1 was tested, and the IC50 (second compound 0.0316 µM) was 800 nM, the IC50 (second compound 0.1 µM) was 795 nM and the IC50 (second compound 0.316 µM) was 765 nM. The IC50 (second compound 1 µM) was 729 nM, the IC50 (second compound 3.16 µM) was 744 nM and the IC50 (second compound 10 µM) was < 31.6 nM. For the same compound, the viability, T/C [1] was 102%, the viability, T/C [2] was 90.4% and the viability, T/C [3] was 93%. It also gave a viability, T/C [4] of 39.7%, a viability, T/C [5] of 5.75% and a viability, T/C [6] of 3.04%. The viability, T/C [7] was 104%, the viability, T/C [8] was 92.5% and the viability, T/C [9] was 90.7%. For the same compound, the viability, T/C [10] was 39.9%, the viability, T/C [11] was 6.39% and the viability, T/C [12] was 2.92%. For the same compound, the viability, T/C [13] was 110%, the viability, T/C [14] was 102% and the viability, T/C [15] was 87.1%. The viability, T/C [16] was 39.5%, the viability, T/C [17] was 6.6% and the viability, T/C [18] was 4.64%. The viability, T/C [19] was 97.3%, the viability, T/C [20] was 90.8% and the viability, T/C [21] was 85.1%. For the same compound, the viability, T/C [22] was 36.9%, the viability, T/C [23] was 6.12% and the viability, T/C [24] was 3.44%. It also gave a viability, T/C [25] of 96.7%, a viability, T/C [26] of 98.4% and a viability, T/C [27] of 100%. It also gave a viability, T/C [28] of 33.3%, a viability, T/C [29] of 6.38% and a viability, T/C [30] of 3.89%. For the same compound, the viability, T/C [31] was 15.1%, the viability, T/C [32] was 20.8% and the viability, T/C [33] was 21.7%. The viability, T/C [34] was 11.7%, the viability, T/C [35] was 7.12% and the viability, T/C [36] was 4.27%.
